According to patent US6399325B1, “DNA encoding a galanin receptor” (priority 1994, dated 2002):

Tested on: mock transformed CHO cells
Assay: cAMP assay in mock transformed CHO cells
Assay type: cell-based
Conditions: CHO transformants with the plasmid vector without cDNA insert; forskolin 10 μM, porcine galanin 0.1 μM; 37° C. for 30 min
Procedure: (§1) CHO-MGR20 or mock transformed CHO cells were incubated with forskolin (10 μM) and porcine galanin (0.1 μM) at 37° C. for 30 min. The reaction was terminated by extracting the cells with ice-cold ethanol. The amounts of intracellular cAMP were quantitated by EIA. Values indicated are mean±S.E.M. in triplicate assays.
The CHO cells were seeded at 2.0×10^5 cells/well in 24-well tissue culture plates and cultured for two days. The cells were washed two times with HBSS containing 0.1% BSA and 1 mM IBMX, and then the same buffer with experimental agents were added to the wells. After incubation at 37° C. for 30 min, the media were discarded and intracellular cAMP was extracted with ice-cold ethanol. The aliquots of extracts were evaporated and the amounts of cAMP were quantitated by a cAMP EIA system (Amersham) as described by the manufacturer.
as §1, with “Galanin receptor-mediated inhibition of forskolin-stimulated cAMP production was observed. CHO-MGR20” for “CHO-MGR20”

For Porcine Galanin, the “forskolin-stimulated cAMP accumulation” value was “not inhibited”.
